Active and inactive are the calls of the source. The calls are words filed in the database; no cut-off is given here.
Columns and labels:
[1] = species on record: Ovis aries; assay: Inhibition of sheep tubulin polymerization at 100 uM by fluorescence assay
[2] = system: SR; assay: Cytotoxicity against human SR cells assessed as growth inhibition at 10 uM after 24 hrs by SRB assay; assay type: functional
[3] = system: HOP-62; assay: Cytotoxicity against human HOP62 cells assessed as growth inhibition at 10 uM after 24 hrs by SRB assay; assay type: functional
[4] = system: HOP-92; assay: Cytotoxicity against human HOP92 cells assessed as growth inhibition at 10 uM after 24 hrs by SRB assay; assay type: functional
[5] = system: 786-0; assay: Cytotoxicity against human 786-0 cells assessed as growth inhibition at 10 uM after 24 hrs by SRB assay; assay type: functional
[6] = system: MDA-MB-231; assay: Cytotoxicity against human MDA-MB-231 cells assessed as growth inhibition at 10 uM after 24 hrs by SRB assay; assay type: functional
[7] = system: OVCAR-8; assay: Cytotoxicity against human OVCAR8 cells assessed as growth inhibition at 10 uM after 24 hrs by SRB assay; assay type: functional
[8] = system: HCT-116; assay: Cytotoxicity against human HCT116 cells assessed as growth inhibition at 10 uM after 24 hrs by SRB assay; assay type: functional
[9] = system: SK-MEL-28; assay: Cytotoxicity against human SK-MEL-28 cells assessed as growth inhibition at 10 uM after 24 hrs by SRB assay; assay type: functional
[10] = system: SK-MEL-5; assay: Cytotoxicity against human SK-MEL-5 cells assessed as growth inhibition at 10 uM after 24 hrs by SRB assay; assay type: functional
[11] = system: NCI-H226; assay: Cytotoxicity against human NCI-H226 cells assessed as growth inhibition at 10 uM after 24 hrs by SRB assay; assay type: functional
[12] = system: RPMI-8226; assay: Cytotoxicity against human RPMI8226 cells assessed as growth inhibition at 10 uM after 24 hrs by SRB assay; assay type: functional
[13] = system: SF-295; assay: Cytotoxicity against human SF295 cells assessed as growth inhibition at 10 uM after 24 hrs by SRB assay; assay type: functional
[14] = system: CCRF-CEM; assay: Cytotoxicity against human CCRF-CEM cells assessed as growth inhibition at 10 uM after 24 hrs by SRB assay; assay type: functional
[15] = system: Hs-578T; assay: Cytotoxicity against human Hs578T cells assessed as growth inhibition at 10 uM after 24 hrs by SRB assay; assay type: functional
[16] = system: SNB-75; assay: Cytotoxicity against human SNB75 cells assessed as growth inhibition at 10 uM after 24 hrs by SRB assay; assay type: functional
[17] = system: UACC-257; assay: Cytotoxicity against human UACC257 cells assessed as growth inhibition at 10 uM after 24 hrs by SRB assay; assay type: functional; conditions: UACC-257, 24 h, read-out: GI
[18] = system: Malme-3M; assay: Cytotoxicity against human MALME-3M cells assessed as growth inhibition at 10 uM after 24 hrs by SRB assay; assay type: functional
[19] = system: OVCAR-4; assay: Cytotoxicity against human OVCAR4 cells assessed as growth inhibition at 10 uM after 24 hrs by SRB assay; assay type: functional
[20] = system: U-251; assay: Cytotoxicity against human U251 cells assessed as growth inhibition at 10 uM after 24 hrs by SRB assay; assay type: functional
[21] = system: NCI-H460; assay: Cytotoxicity against human NCI-H460 cells assessed as growth inhibition at 10 uM after 24 hrs by SRB assay; assay type: functional
[22] = system: MCF7; assay: Cytotoxicity against human MCF7 cells assessed as growth inhibition at 10 uM after 24 hrs by SRB assay; assay type: functional
[23] = system: UACC-62; assay: Cytotoxicity against human UACC62 cells assessed as growth inhibition at 10 uM after 24 hrs by SRB assay; assay type: functional
[24] = system: PC-3; assay: Cytotoxicity against human PC3 cells assessed as growth inhibition at 10 uM after 24 hrs by SRB assay; assay type: functional
[25] = system: TK-10; assay: Cytotoxicity against human TK10 cells assessed as growth inhibition at 10 uM after 24 hrs by SRB assay; assay type: functional
[26] = system: OVCAR-3; assay: Cytotoxicity against human OVCAR3 cells assessed as growth inhibition at 10 uM after 24 hrs by SRB assay; assay type: functional
[27] = system: SK-OV-3; assay: Cytotoxicity against human SKOV3 cells assessed as growth inhibition at 10 uM after 24 hrs by SRB assay; assay type: functional
[28] = system: CAKI-1; assay: Cytotoxicity against human CAKI-1 cells assessed as growth inhibition at 10 uM after 24 hrs by SRB assay; assay type: functional
[29] = system: MDA-MB-435; assay: Cytotoxicity against human MDA-MB-435 cells assessed as growth inhibition at 10 uM after 24 hrs by SRB assay; assay type: functional
[30] = system: HL-60(TB); assay: Cytotoxicity against human HL-60(TB) cells assessed as growth inhibition at 10 uM after 24 hrs by SRB assay; assay type: functional
[31] = system: T47D; assay: Cytotoxicity against human T47D cells assessed as growth inhibition at 10 uM after 24 hrs by SRB assay; assay type: functional
[32] = system: A549; assay: Cytotoxicity against human A549 cells assessed as growth inhibition at 10 uM after 24 hrs by SRB assay; assay type: functional
[33] = system: SF-539; assay: Cytotoxicity against human SF539 cells assessed as growth inhibition at 10 uM after 24 hrs by SRB assay; assay type: functional
[34] = system: NCI/ADR-RES; assay: Cytotoxicity against human NCI/ADR-RES cells assessed as growth inhibition at 10 uM after 24 hrs by SRB assay; assay type: functional
[35] = system: ACHN; assay: Cytotoxicity against human ACHN cells assessed as growth inhibition at 10 uM after 24 hrs by SRB assay; assay type: functional
[36] = system: K562; assay: Cytotoxicity against human K562 cells assessed as growth inhibition at 10 uM after 24 hrs by SRB assay; assay type: functional
[37] = system: RXF 393; assay: Cytotoxicity against human RXF393 cells assessed as growth inhibition at 10 uM after 24 hrs by SRB assay; assay type: functional; conditions: RXF 393, 24 h, read-out: GI
[38] = system: NCI-H522; assay: Cytotoxicity against human NCI-H522 cells assessed as growth inhibition at 10 uM after 24 hrs by SRB assay; assay type: functional

Row | SMILES | inhibition [1] | growth inhibition (GI) [2] | growth inhibition (GI) [3] | growth inhibition (GI) [4] | growth inhibition (GI) [5] | growth inhibition (GI) [7] | growth inhibition (GI) [8] | growth inhibition (GI) [10] | growth inhibition (GI) [11] | growth inhibition (GI) [12] | growth inhibition (GI) [14] | growth inhibition (GI) [15] | inhibition of growth at 10 µM [17] [%] | growth inhibition (GI) [20] | growth inhibition (GI) [21] | growth inhibition (GI) [23] | growth inhibition (GI) [24] | growth inhibition (GI) [25] | growth inhibition (GI) [26] | growth inhibition (GI) [27] | also measured
1 | COc1nc(OC)nc(-c2cc(C(=O)c3ccc(Br)cc3)n3ccc(C#N)cc23)n1 | inactive | inactive | inactive | inactive | inactive | inactive | inactive | inactive | inactive | inactive | inactive | inactive | 11 | inactive | inactive | inactive | inactive | inactive | inactive | inactive | inhibition of growth at 10 µM ([6]; MDA-MB-231, 24 h, read-out: GI): 11%; growth inhibition (GI) [9]: inactive; growth inhibition (GI) [13]: inactive; inhibition of growth at 10 µM ([16]; SNB-75, 24 h, read-out: GI): 27%; growth inhibition (GI) [18]: inactive; growth inhibition (GI) [19]: inactive; growth inhibition (GI) [22]: inactive; growth inhibition (GI) [28]: inactive; growth inhibition (GI) [29]: inactive; growth inhibition (GI) [30]: inactive; growth inhibition (GI) [31]: inactive; growth inhibition (GI) [32]: inactive; growth inhibition (GI) [33]: inactive; growth inhibition (GI) [34]: inactive; growth inhibition (GI) [35]: inactive; growth inhibition (GI) [36]: inactive; inhibition of growth at 10 µM [37]: 14%; growth inhibition (GI) [38]: inactive
2 | COc1nc(OC)nc(-c2cc(C(=O)c3ccc(Br)cc3)n3ccc(C)cc23)n1 | inactive | inactive | inactive | inactive | inactive | inactive | inactive | inactive | inactive | inactive | inactive | inactive | 31 | inactive | inactive | inactive | inactive | inactive | inactive | inactive | growth inhibition (GI) [6]: inactive; inhibition of growth at 10 µM ([9]; SK-MEL-28, 24 h, read-out: GI): 30%; inhibition of growth at 10 µM ([13]; SF-295, 24 h, read-out: GI): 20%; growth inhibition (GI) [16]: inactive; inhibition of growth at 10 µM ([18]; read-out: GI): 73%; inhibition of growth at 10 µM ([19]; OVCAR-4, 24 h, read-out: GI): 95%; inhibition of growth at 10 µM ([22]; MCF7, 24 h, read-out: GI): 38%; growth inhibition (GI) [28]: inactive; growth inhibition (GI) [29]: inactive; growth inhibition (GI) [30]: inactive; growth inhibition (GI) [31]: inactive; growth inhibition (GI) [32]: inactive; growth inhibition (GI) [33]: inactive; growth inhibition (GI) [34]: inactive; growth inhibition (GI) [35]: inactive; growth inhibition (GI) [36]: inactive; growth inhibition (GI) [38]: inactive

From ChEMBL document CHEMBL3612057, “Discovery of indolizines containing triazine moiety as new leads for the development of antitumoral agents targeting mitotic events” (2015)
